Where two headings read alike, the source gives them in different places.
Tested on: HT-29 cells
Assay: Necroptosis assay (TNF-α/Smac mimetic/z-VAD, TSZ-induced) in HT-29 cells
Assay type: cell-based, human
Outline: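 HT-29 cells were challenged with 20 ng/ml TNF-α, 100 nM Smac mimetic and 20 mM z-VAD while compound was added at the same time (library screen at 10 mM). After 24 h, viability was read as ATP luminescence (CellTiter-Glo) and normalized to DMSO-treated cells; values are means ± SD of duplicates.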

[1] = Series 1 (Table 1) compounds 1-146, HT-29 cells, TNF-α/Smac mimetic/z-VAD, 24 hrs, cell viability by ATP level, read-out: Series 1 compound necroptosis activity
[2] = Homo sapiens, Series 1 (Table 1) compounds 1-146, HT-29 cells, TNF-α/Smac mimetic/z-VAD, 24 hrs, cell viability by ATP level, read-out: Series 1 compound necroptosis activity
[3] = Series 1 (Table 1) compounds 147-176, activity extrapolated, read-out: Series 1 compound necroptosis activity (extrapolated)
[4] = Homo sapiens, Series 2 (Table 2) compounds, HT-29 necroptosis assay, read-out: Series 2 compound necroptosis activity

`Cn1c(=O)c2c(nc(S(C)(=O)=O)n2CC#N)n(C)c1=O` [Compound 84, 2-(1,3-dimethyl-8-(methylsulfonyl)-2,6-dioxo-2,3-dihydro-1H-purin-7(6H)-yl)acetonitrile] was tested. Which EC50 [1] did it give?
Its EC50 is 1000 to 1e+06 nM.

How did the EC50 [2] turn out when `CCn1c(S(C)(=O)=O)nc2c1c(=O)n(C)c(=O)n2C` [Compound 74, 7-ethyl-1,3-dimethyl-8-(methylsulfonyl)-1H-purine-2,6(3H,7H)-dione] was run?
The EC50 was 1000 to 10000 nM.

Which EC50 [1] does the source give for `Cn1c(=O)c2c(nc(S(=O)(=O)Cc3ccccc3C(N)=O)n2C)n(C)c1=O` [Compound 45, 2-((1,3,7-trimethyl-2,6-dioxo-2,3,6,7-tetrahydro-1H-purin-8-ylsulfonyl)methyl)benzamide] here?
Its EC50 is 1000 to 1e+06 nM.

Which EC50 [3] does the source give for `Cn1c(=O)c2c(nc3n2CCS3(=O)=O)n(CC#Cc2cccc(O)c2)c1=O` [Compound 148] here?
The EC50 was 1000 to 1e+06 nM.

How did the EC50 [1] turn out when `CCC[S+]([O-])c1nc2c(c(=O)n(C)c(=O)n2C)n1CC` (stereo not shown) [Compound 79, 7-ethyl-1,3-dimethyl-8-(propylsulfinyl)-1H-purine-2,6(3H,7H)-dione] was run?
Its EC50 is 1000 to 1e+06 nM.

`CCCNc1cccc(C#CCn2c(=O)n(C)c(=O)c3c2nc(S(C)(=O)=O)n3C)c1` [Compound 162] was tested. Which EC50 [3] did it give?
Its EC50 is 1000 to 1e+06 nM.

`Cn1c(=O)c2c(nc(S(C)(=O)=O)n2C)n(C)c1=O` [Compound 4, 1,3,7-trimethyl-8-(methylsulfonyl)-1H-purine-2,6(3H,7H)-dione] was tested. Which EC50 [2] did it give?
The EC50 was 1000 to 10000 nM.

Which EC50 (Homo sapiens, HT-29, 24 h, read-out: EC50 (nM), potency in TSZ-induced necroptosis assays in HT-29 cells) does the source give for `C#CCn1c(=O)n(C)c(=O)c2c1nc(S(C)(=O)=O)n2C` [Compound 12] here?
Its EC50 is 152 ± 23 nM.

Which EC50 [1] does the source give for `Cn1c(=O)c2[nH]c(S(C)(=O)=O)nc2n(C)c1=O` [Compound 72, 1,3-dimethyl-8-(methylsulfonyl)-1H-purine-2,6(3H,7H)-dione] here?
Its EC50 is 1000 to 1e+06 nM.

With `Cn1c(=O)c2c(nc(S(=O)(=O)Cc3ccc(C4(C(F)(F)F)N=N4)cc3)n2C)n(C)c1=O` [Compound 41, 1,3,7-trimethyl-8-(4-(3-(trifluoromethyl)-3H-diazirin-3-yl)benzylsulfonyl)-1H-purine-2,6(3H,7H)-dione] as the molecule, how does the EC50 [1] read?
The EC50 was 1000 to 1e+06 nM.

With `Cn1c(=O)c2c(nc(S(C)(=O)=O)n2C)n(CC#Cc2ccnc(N)n2)c1=O` [Compound 24] as the molecule, how does the EC50 [4] read?
Its EC50 is 1 to 100 nM.

`CN(C)CCS(=O)(=O)c1nc2c(c(=O)n(C)c(=O)n2CC#Cc2cccc(O)c2)n1C` [Compound 152] was tested. Which EC50 [3] did it give?
Its EC50 is 1000 to 1e+06 nM.

How did the EC50 [1] turn out when `COc1c(Cl)cccc1CS(=O)(=O)c1nc2c(c(=O)n(C)c(=O)n2C)n1C` [Compound 63, 8-(3-chloro-2-methoxybenzylsulfonyl)-1,3,7-trimethyl-1H-purine-2,6(3H,7H)-dione] was run?
Its EC50 is 1000 to 1e+06 nM.

Which EC50 [4] does the source give for `Cn1c(=O)c2c(nc(S(C)(=O)=O)n2C)n(CC#Cc2cc(NC(=O)C3CC3)cc(C(F)(F)F)c2)c1=O` [Compound 44] here?
The EC50 was 1 to 100 nM.

`CNS(=O)(=O)c1nc2c(c(=O)n(C)c(=O)n2CC#Cc2cccc(O)c2)n1C` [Compound 157] was tested. Which EC50 [3] did it give?
Its EC50 is 1000 to 1e+06 nM.

With `COc1cc(CS(=O)(=O)c2nc3c(c(=O)n(C)c(=O)n3C)n2C)c(OC)cc1F` [Compound 71, 8-(4-fluoro-2,5-dimethoxybenzylsulfonyl)-1,3,7-trimethyl-1H-purine-2,6(3H,7H)-dione] as the molecule, how does the EC50 [1] read?
Its EC50 is 1000 to 1e+06 nM.

Which EC50 [1] does the source give for `CCOc1ccc(OC)c(CS(=O)(=O)c2nc3c(c(=O)n(C)c(=O)n3C)n2C)c1` [Compound 67, 8-(5-ethoxy-2-methoxybenzylsulfonyl)-1,3,7-trimethyl-1H-purine-2,6(3H,7H)-dione] here?
The EC50 was 1000 to 1e+06 nM.

Which EC50 [1] does the source give for `Cn1c(=O)c2c(nc(S(=O)(=O)Cc3cccc(C4(C(F)(F)F)N=N4)c3)n2C)n(C)c1=O` [Compound 40, 1,3,7-trimethyl-8-(3-(3-(trifluoromethyl)-3H-diazirin-3-yl)benzylsulfonyl)-1H-purine-2,6(3H,7H)-dione] here?
Its EC50 is 1000 to 1e+06 nM.

Which EC50 [2] does the source give for `Cn1c(=O)c2c(nc(S(=O)(=O)Cc3cc(Cl)cc(Cl)c3)n2C)n(C)c1=O` [Compound 56, 8-(3,5-dichlorobenzylsulfonyl)-1,3,7-trimethyl-1H-purine-2,6(3H,7H)-dione] here?
Its EC50 is 1000 to 100000 nM.

`Cn1c(=O)c2c(nc(S(C)(=O)=O)n2C)n(CC#Cc2cccc(NCc3ccccc3)c2)c1=O` [Compound 166] was tested. Which EC50 [3] did it give?
The EC50 was 1000 to 1e+06 nM.

Which EC50 [2] does the source give for `Cn1c(=O)c2c(nc(S(=O)(=O)CC3CC3)n2C)n(CC#Cc2cccc(Cl)c2)c1=O` [Compound 119, 3-(3-(3-chlorophenyl)prop-2-yn-1-yl)-8-((cyclopropylmethyl)sulfonyl)-1,7-dimethyl-3,7-dihydro-1H-purine-2,6-dione] here?
Its EC50 is 1000 to 10000 nM.

`Cn1c(=O)c2c(nc(S(=O)(=O)CC3CC3)n2C)n(CC#Cc2cc(NC(=O)C3CC3)cc(C(F)(F)F)c2)c1=O` [Compound 46] was tested. Which EC50 [4] did it give?
The EC50 was 100 to 10000 nM.

With `Cn1c(=O)c2c(nc(S(=O)(=O)CC3CC3)n2C)n(Cc2ccccc2F)c1=O` [Compound 133, 8-((cyclopropylmethyl)sulfonyl)-3-(2-fluorobenzyl)-1,7-dimethyl-1H-purine-2,6(3H,7H)-dione] as the molecule, how does the EC50 [2] read?
The EC50 was 1000 to 100000 nM.

For `Cn1c(=O)c2c(nc(S(=O)(=O)Cc3ccccc3[N+](=O)[O-])n2C)n(C)c1=O` [Compound 38, 1,3,7-trimethyl-8-(2-nitrobenzylsulfonyl)-1H-purine-2,6(3H,7H)-dione], which EC50 [1] is on record?
The EC50 was 1000 to 1e+06 nM.

How did the EC50 [4] turn out when `Cn1c(=O)c2c(nc(S(C)(=O)=O)n2C)n(CC#Cc2cc(N)cc(NC(=O)C3CC3)c2)c1=O` [Compound 40] was run?
Its EC50 is 1 to 100 nM.

For `Cn1c(=O)c2c(nc(S(C)(=O)=O)n2C)n(CC#Cc2cc(NCC3CC3)cc(NCC3CC3)c2)c1=O` [Compound 37], which EC50 [4] is on record?
Its EC50 is 1 to 100 nM.

With `Cn1c(=O)c2c(nc(S(C)(=O)=O)n2C)n(CC2CC2)c1=O` [Compound 102, 3-(cyclopropylmethyl)-1,7-dimethyl-8-(methylsulfonyl)-1H-purine-2,6(3H,7H)-dione] as the molecule, how does the EC50 [2] read?
The EC50 was 1000 to 100000 nM.

How did the EC50 (Series 1 (Table 1) compounds, HT-29 cells, TNF-α/Smac mimetic/z-VAD, 24 hrs, cell viability by ATP level, read-out: Series 1 compound necroptosis activity) turn out when `Cn1c(=O)c2c(nc(S(=O)(=O)CC3CC3)n2C)n(CC#Cc2ccc(Cl)cc2)c1=O` [Compound 121, 3-(3-(4-chlorophenyl)prop-2-yn-1-yl)-8-((cyclopropylmethyl)sulfonyl)-1,7-dimethyl-3,7-dihydro-1H-purine-2,6-dione] was run?
The EC50 was 1 to 1000 nM.

`COCCOc1cc(C#CCn2c(=O)n(C)c(=O)c3c2nc([S+](C)[O-])n3C)cc(NC(=O)C2CC2)c1` (stereo not shown) [Compound 54] was tested. Which EC50 [4] did it give?
Its EC50 is 1 to 100 nM.

With `CC(C)Nc1cc(C#CCn2c(=O)n(C)c(=O)c3c2nc(S(=O)(=O)CC2CC2)n3C)ccn1` [Compound 35] as the molecule, how does the EC50 [4] read?
The EC50 was 1 to 100 nM.

`CCCCCNc1cccc(C#CCn2c(=O)n(C)c(=O)c3c2nc(S(C)(=O)=O)n3C)c1` [Compound 16] was tested. Which EC50 [4] did it give?
The EC50 was 100 to 10000 nM.

How did the EC50 [4] turn out when `Cn1c(=O)c2c(nc(S(C)(=O)=O)n2C)n(CC#Cc2cccc(NCCN3CCCCC3)c2)c1=O` [Compound 18] was run?
The EC50 was 100 to 10000 nM.

How did the EC50 [1] turn out when `CCC[S+]([O-])c1nc2c(c(=O)n(C)c(=O)n2C)n1C` (stereo not shown) [Compound 9, 1,3,7-trimethyl-8-(propylsulfinyl)-1H-purine-2,6(3H,7H)-dione] was run?
The EC50 was 1000 to 1e+06 nM.

`Cn1c(=O)c2c(nc(S(C)(=O)=O)n2C)n(CC#Cc2ccc3[nH]c(=O)[nH]c3c2)c1=O` [Compound 23] was tested. Which EC50 [4] did it give?
Its EC50 is 100 to 10000 nM.

`CNc1cc(C#CCn2c(=O)n(C)c(=O)c3c2nc(S(C)(=O)=O)n3C)ccc1N1CCN(C)CC1` [Compound 175] was tested. Which EC50 [3] did it give?
Its EC50 is 1000 to 1e+06 nM.

`CCCSc1nc2c(c(=O)n(C)c(=O)n2C)n1CC` [Compound 78, 7-ethyl-1,3-dimethyl-8-(propylthio)-1H-purine-2,6(3H,7H)-dione] was tested. Which EC50 [1] did it give?
Its EC50 is 1000 to 1e+06 nM.

How did the EC50 [1] turn out when `COc1cccc(OC)c1CS(=O)(=O)c1nc2c(c(=O)n(C)c(=O)n2C)n1C` [Compound 62, 8-(2,6-dimethoxybenzylsulfonyl)-1,3,7-trimethyl-1H-purine-2,6(3H,7H)-dione] was run?
The EC50 was 1000 to 1e+06 nM.

Source: patent publication US11666577B2 (National Institute of Biological Sciences, Beijing, priority 2018, dated 2023)
